# Like-named read-outs stand apart in the source and are kept apart here.
# Legend:
# HDAC10 = target: T1, HDAC10 (Homo sapiens, UniProt Q969S8); conditions: cited from earlier work
# T1 sequence (Q969S8 1-669): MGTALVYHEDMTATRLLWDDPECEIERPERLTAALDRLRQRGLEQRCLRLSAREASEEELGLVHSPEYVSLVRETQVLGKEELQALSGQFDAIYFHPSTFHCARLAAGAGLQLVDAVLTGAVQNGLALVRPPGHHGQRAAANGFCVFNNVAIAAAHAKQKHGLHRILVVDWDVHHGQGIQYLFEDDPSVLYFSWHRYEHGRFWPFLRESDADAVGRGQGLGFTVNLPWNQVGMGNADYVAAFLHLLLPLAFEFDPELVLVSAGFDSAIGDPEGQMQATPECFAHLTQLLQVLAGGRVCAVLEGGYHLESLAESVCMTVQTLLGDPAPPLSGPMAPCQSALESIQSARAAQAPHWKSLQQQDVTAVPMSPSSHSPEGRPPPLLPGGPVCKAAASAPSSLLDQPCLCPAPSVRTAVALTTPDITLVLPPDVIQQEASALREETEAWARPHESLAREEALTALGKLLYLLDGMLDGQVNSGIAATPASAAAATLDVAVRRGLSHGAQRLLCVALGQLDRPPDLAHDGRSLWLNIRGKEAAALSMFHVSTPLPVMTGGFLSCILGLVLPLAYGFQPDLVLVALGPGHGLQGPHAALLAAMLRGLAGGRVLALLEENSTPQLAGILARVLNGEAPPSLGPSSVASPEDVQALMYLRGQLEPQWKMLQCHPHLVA
# HDAC2 = HDAC2 (Homo sapiens, UniProt Q92769); conditions: cited from earlier work
# HDAC4 = HDAC4 (Homo sapiens, UniProt P56524); conditions: cited from earlier work
# HDAC1 = HDAC1 (Homo sapiens, UniProt Q13547); conditions: cited from earlier work
# HDAC5 = HDAC5 (Homo sapiens, UniProt Q9UQL6); conditions: against HDAC5; cited from earlier work
# HDAC6 = target: T2, HDAC6 (Homo sapiens, UniProt Q9UBN7); conditions: cited from earlier work; for pIC50exp: HDAC6 experimental activity assigned; for pIC50: training set composition
# T2 sequence (Q9UBN7 1-1215): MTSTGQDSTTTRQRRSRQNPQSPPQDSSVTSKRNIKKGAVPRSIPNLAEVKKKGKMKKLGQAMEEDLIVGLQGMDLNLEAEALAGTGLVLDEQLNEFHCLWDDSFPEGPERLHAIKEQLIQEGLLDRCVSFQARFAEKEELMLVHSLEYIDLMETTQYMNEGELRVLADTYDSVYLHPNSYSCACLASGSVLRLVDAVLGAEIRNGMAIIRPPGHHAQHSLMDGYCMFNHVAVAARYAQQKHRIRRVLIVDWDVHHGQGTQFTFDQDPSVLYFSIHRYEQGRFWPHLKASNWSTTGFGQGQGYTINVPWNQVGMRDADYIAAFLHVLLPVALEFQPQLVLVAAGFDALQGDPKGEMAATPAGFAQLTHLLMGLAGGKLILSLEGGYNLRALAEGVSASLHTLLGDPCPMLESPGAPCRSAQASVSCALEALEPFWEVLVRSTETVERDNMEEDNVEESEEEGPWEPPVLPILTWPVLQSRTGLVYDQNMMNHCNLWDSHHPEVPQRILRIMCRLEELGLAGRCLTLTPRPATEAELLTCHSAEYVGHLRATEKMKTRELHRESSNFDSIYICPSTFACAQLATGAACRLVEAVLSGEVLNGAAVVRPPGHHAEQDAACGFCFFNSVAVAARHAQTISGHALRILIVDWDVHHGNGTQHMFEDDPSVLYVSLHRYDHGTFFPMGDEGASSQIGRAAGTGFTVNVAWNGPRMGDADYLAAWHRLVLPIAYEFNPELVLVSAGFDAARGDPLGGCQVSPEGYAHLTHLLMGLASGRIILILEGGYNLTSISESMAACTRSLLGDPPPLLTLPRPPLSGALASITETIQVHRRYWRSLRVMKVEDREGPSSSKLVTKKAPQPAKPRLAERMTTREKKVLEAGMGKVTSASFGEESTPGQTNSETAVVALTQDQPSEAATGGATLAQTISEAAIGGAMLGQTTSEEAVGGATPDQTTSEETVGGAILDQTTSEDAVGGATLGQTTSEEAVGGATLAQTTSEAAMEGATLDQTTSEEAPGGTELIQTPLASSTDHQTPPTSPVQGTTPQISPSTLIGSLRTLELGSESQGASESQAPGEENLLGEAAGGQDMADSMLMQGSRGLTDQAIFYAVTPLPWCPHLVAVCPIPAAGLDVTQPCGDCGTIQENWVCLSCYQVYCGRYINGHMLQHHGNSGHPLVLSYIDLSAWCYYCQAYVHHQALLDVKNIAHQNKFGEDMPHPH
# HDAC isoforms = experiment: HDAC inhibition profiled over several HDAC isoforms (experimental); type: biochemical, human; conditions: range of pIC50 over the profiled HDAC isoforms
# HDAC8 = target: T3, HDAC8 (Homo sapiens, UniProt Q9BY41); conditions: cited from earlier work
# T3 sequence (Q9BY41 1-377): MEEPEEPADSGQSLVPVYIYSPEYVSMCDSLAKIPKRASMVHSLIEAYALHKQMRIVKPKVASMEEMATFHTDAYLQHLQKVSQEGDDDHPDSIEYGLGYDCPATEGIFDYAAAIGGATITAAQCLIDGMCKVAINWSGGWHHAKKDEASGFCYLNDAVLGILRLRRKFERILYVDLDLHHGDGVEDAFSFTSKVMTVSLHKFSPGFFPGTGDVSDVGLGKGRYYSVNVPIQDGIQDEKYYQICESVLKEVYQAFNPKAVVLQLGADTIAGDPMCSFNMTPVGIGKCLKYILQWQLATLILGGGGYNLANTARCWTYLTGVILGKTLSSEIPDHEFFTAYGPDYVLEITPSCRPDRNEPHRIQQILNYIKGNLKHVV
# HDAC3 = HDAC3 (Homo sapiens, UniProt O15379); conditions: cited from earlier work
# [1] = experimental value of modeled complex
# [2] = training set, read-out: HDACs inhibitory activities IC50
# HDAC1, sequence (Q13547 whole entry): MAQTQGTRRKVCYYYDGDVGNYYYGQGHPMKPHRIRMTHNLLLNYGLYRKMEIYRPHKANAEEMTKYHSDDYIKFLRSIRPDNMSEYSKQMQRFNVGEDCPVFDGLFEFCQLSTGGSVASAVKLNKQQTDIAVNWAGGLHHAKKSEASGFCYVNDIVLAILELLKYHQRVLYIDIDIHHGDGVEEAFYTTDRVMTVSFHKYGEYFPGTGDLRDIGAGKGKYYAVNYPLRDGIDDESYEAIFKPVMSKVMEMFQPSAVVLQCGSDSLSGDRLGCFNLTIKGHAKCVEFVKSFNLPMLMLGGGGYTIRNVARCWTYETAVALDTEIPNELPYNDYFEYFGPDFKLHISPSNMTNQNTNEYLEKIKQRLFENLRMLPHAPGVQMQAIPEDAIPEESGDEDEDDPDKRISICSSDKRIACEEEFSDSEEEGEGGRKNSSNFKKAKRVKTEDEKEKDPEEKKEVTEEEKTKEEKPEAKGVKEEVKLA
# HDAC3, sequence (O15379 whole entry): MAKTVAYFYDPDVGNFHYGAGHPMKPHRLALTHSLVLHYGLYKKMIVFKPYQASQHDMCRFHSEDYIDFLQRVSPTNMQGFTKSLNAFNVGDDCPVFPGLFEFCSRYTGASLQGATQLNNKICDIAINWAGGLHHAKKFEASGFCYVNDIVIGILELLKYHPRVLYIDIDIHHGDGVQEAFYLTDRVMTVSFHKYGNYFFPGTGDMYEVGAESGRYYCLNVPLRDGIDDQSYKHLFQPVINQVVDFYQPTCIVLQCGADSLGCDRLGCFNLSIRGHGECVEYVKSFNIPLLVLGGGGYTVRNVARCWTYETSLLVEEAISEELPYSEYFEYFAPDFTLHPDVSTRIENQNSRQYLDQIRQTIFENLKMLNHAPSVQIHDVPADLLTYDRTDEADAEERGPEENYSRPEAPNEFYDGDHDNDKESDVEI
# HDAC3, sequence (Q9Y618 395-489 partner limits assumed): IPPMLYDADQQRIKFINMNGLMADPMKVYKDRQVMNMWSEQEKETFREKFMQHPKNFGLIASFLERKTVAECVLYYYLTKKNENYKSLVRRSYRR
# HDAC4, sequence (P56524 whole entry): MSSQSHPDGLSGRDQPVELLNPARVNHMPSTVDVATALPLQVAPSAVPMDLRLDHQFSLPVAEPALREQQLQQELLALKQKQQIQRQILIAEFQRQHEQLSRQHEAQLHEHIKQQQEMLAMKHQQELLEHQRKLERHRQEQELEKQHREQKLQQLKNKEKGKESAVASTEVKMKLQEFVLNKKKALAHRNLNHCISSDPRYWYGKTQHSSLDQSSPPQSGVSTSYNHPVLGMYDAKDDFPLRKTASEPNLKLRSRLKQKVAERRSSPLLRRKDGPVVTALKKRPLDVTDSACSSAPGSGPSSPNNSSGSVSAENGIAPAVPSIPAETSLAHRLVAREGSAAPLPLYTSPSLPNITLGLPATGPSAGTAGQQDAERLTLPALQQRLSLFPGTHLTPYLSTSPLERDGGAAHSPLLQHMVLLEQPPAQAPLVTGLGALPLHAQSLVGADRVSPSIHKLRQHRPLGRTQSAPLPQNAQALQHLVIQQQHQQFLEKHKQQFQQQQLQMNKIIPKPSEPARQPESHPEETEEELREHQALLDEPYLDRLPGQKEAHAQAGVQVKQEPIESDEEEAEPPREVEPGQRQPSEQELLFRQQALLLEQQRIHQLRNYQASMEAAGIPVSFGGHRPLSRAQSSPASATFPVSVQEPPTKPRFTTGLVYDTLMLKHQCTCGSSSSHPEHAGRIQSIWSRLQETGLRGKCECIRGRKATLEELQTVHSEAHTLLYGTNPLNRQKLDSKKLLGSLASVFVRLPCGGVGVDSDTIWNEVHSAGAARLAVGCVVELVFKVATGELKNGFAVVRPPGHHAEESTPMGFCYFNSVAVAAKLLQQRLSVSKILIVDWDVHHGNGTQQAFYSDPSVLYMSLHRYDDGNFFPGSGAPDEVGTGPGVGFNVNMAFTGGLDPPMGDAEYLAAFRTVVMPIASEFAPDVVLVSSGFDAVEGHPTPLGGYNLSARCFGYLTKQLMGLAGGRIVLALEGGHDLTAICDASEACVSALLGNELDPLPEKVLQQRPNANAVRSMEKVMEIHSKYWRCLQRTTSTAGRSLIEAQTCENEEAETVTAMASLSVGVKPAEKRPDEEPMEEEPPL
# HDAC2, sequence (Q92769 whole entry): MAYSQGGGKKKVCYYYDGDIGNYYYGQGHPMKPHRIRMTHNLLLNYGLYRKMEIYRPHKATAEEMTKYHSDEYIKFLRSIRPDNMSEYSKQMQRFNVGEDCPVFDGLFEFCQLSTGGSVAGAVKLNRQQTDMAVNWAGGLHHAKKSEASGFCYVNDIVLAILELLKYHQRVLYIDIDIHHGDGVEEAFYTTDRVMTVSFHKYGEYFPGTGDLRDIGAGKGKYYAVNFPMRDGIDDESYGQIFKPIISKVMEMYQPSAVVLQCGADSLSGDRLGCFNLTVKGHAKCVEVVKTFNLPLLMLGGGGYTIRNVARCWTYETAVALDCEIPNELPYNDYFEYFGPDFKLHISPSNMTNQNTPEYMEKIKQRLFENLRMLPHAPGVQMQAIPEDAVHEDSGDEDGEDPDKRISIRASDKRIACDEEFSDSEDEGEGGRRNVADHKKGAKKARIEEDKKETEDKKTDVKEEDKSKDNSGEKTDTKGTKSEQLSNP
# HDAC5, sequence (Q9UQL6 whole entry): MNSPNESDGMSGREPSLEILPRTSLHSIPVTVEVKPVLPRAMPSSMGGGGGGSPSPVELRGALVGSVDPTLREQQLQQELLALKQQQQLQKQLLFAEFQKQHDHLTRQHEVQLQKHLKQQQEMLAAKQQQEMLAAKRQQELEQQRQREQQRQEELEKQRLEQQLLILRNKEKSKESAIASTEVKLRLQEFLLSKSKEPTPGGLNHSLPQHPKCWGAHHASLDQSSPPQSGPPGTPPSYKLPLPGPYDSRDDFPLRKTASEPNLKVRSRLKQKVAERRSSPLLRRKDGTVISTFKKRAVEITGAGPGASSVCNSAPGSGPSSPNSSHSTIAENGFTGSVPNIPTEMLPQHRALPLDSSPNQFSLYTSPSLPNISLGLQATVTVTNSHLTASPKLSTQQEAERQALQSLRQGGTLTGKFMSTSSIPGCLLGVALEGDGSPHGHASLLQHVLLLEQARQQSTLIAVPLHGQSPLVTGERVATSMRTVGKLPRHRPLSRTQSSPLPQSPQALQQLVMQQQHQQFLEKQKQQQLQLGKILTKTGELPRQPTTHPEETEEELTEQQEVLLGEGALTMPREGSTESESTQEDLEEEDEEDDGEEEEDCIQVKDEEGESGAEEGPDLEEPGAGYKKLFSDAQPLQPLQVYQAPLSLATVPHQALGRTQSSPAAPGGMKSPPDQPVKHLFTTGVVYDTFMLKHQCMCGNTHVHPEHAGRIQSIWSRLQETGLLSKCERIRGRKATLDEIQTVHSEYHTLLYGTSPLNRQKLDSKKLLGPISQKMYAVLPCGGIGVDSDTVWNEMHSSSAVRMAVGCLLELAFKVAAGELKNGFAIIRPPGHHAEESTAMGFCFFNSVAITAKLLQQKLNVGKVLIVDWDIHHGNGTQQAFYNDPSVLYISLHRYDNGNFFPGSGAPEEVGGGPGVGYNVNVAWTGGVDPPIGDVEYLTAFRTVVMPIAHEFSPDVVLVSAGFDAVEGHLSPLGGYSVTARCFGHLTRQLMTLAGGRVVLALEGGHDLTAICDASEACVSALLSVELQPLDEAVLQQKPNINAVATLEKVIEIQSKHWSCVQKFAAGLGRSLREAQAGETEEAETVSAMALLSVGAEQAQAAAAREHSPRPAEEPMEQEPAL
compound,measurement,setting,value
"CCCC(=O)O [NABUT, Butyrate]",pIC50exp,HDAC10; [1],3.535
same,pIC50,HDAC10; training set composition,3.54
same,IC50,HDAC10; [2],292 µM
same,pIC50,HDAC2; training set composition,4.54
same,IC50,HDAC2; [2],28.9 µM
same,pIC50,HDAC4; training set composition,4.52
same,IC50,HDAC4; [2],30 µM
same,pIC50exp,HDAC1; [1],3.496
same,pIC50,HDAC1; training set composition,3.50
same,IC50,HDAC1; [2],319 µM
same,pIC50 (lower end of training set activity range),HDAC5,2.7
same,pIC50exp,HDAC6; HDAC6-1 (histone catalytic domain),3
same,pIC50,HDAC6; HDAC6-1,3.00
same,pIC50exp,HDAC6; HDAC6-2 (tubulin catalytic domain),3
same,pIC50,HDAC6; HDAC6-2,3.00
same,IC50,"HDAC6; HDAC6, training set, read-out: HDACs inhibitory activities IC50",1000 µM
same,Bioactivity range (ΔpIC50) DpIC50,HDAC isoforms,1.95
same,pIC50,HDAC8; training set composition,4.07
same,IC50,HDAC8; [2],85.6 µM
same,pIC50exp,HDAC3; [1],4.648
same,pIC50,HDAC3; training set composition,4.65
same,IC50,HDAC3; [2],22.5 µM

# — patent publication US20160378912A1, “STRUCTURE-BASED MODELING AND TARGET-SELECTIVITY PREDICTION” (EPIGENETX, LLC, priority 2013, published 2016)
